The values that follow come from patent publication US6011008A, “Conjugates of biologically active substances” (priority 1998, dated 2000).

A short description of data set [1]: In vitro release (dialysis tubing method). It is filed as physicochemical. To be noted: for drug released from the dialysis tube: after 5 hours, buffer pH 7.4, 37° C.; for release of the conjugated drug: after 24 hours, buffer pH 7.4 at 37° C. The method, then: A solution of the Schiff base or the amine conjugates (100 mg in 5 ml phosphate buffer pH7.4) was placed into a cellulose dialysis tubing of 12,000 MW cut off and the bag was placed into a 100 ml. buffer solution at 37° C. The drug release to the solution was monitored by UV absorption at 280 nm, unless otherwise indicated.
The release of DOX from the AG conjugates was determined using dialysis tubing as described above. The DOX-AG imine conjugate, the DOX-AG amine conjugate and a solution of the native drug were studied. The amount of DOX found in the solution was 2, 5, 8, 10 and 12% of the total dose after 2, 4, 7, 12 and 32 hours, respectively.
The Mitomycin release into the solution was measured as described above. The amount of drug found in the solution was 1, 2, 4, 5 and 8% of the total dose after 2, 4, 7, 12 and 32 hours, respectively.
In vitro release of Somatostatin was determined as described in the Methods and the somatostatin concentration was determined by the Folin-Lowry method for peptide analysis^(10).
Insulin was conjugated to oxidized AG (50 mg with 100 mg pure oxidized AG) using the method described above for somatostatin. The conjugation yield was about 75% as determined by nitrogen analysis and the Folin-Lowry method. The Schiff base derivative released about 25% of its drug content after 24 hours in phosphate buffer solution at […].

Data set [2] concerns Escherichia coli. To be noted: Escherichia coli agar plates, after 24 hours of incubation.
Procedure: The antimicrobial activity of the conjugates was assayed by a cup method^(9) (agar plate method) using Escherichia coli agar plates and measuring the zone of growth inhibition.
Data set [3] concerns Staphylococcus Aureus. Briefly: Antimicrobial activity, filter paper on seeded agar plate. It is filed as cell-based. The settings on record: Staphylococcus Aureus (10^5 /ml), 24 hours at 37° C., 6 mm filter paper, equivalent amounts of the drug. On the procedure:
(§1) The antimicrobial activity of these conjugates was determined as described above. Saline solutions of equivalent amounts of the drug in free form or the imine or amine AG conjugates were absorbed onto a circular filter paper (6 mm in diameter) and placed on a seeded agar plate with Staphylococcus Aureus (10^5 /ml) and E. Coli incubated for 24 hours at 37° C. […] Similar results were obtained for the Polymyxin derivatives.

The test system of data set [4] is E. Coli. Described as above. It is filed as cell-based. The settings on record: 24 hours at 37° C., 6 mm filter paper, equivalent amounts of the drug. On the procedure:
as §1

Consider `COc1cccc2c1C(=O)c1c(O)c3c(c(O)c1C2=O)C[C@@](O)(C(=O)CO)C[C@@H]3O[C@H]1C[C@H](N)[C@H](O)[C@H](C)O1` [DOX, Doxorubicin], for which the “drug released from the dialysis tube” value in data set [1] came to 90%.
In turn, `CO[C@@]12[C@H](COC(N)=O)C3=C(C(=O)C(C)=C(N)C3=O)N1C[C@@H]1N[C@@H]12` [Mitomycin C] registered an inhibition zone in data set [2] above 10 mm.
With `NC[C@H]1O[C@H](O[C@H]2[C@H](O)[C@@H](O[C@H]3O[C@H](CO)[C@@H](O)[C@H](N)[C@H]3O)[C@H](N)C[C@@H]2N)[C@H](N)C[C@@H]1O` [tobramicin], the inhibition zone in data set [3] and in data set [4] was above 10 mm throughout.
On to “Insulin-AG Schiff base derivative: Insulin conjugated to pure oxidized AG, Schiff base”, for which the “release of drug content” value in data set [1] (after 24 hours in phosphate buffer solution at […].) is on record as “about 25%”.
In the case of “Somatostatin-AG amine conjugate: Somatostatin-AG Schiff base hydrogenated to the amine conjugate using NaBH4”, the “release of the conjugated drug” value in data set [1] is on record as “did not release any”.
Regarding “Somatostatin-AG imine conjugate: Somatostatin conjugated to pure oxidized AG via imine bond”, in data set [1], the “drug released from the dialysis tube” value is on record as “about 5%” and the “release of the conjugated drug” value is around 18%.
Take gentamicin: the inhibition zone in data set [3] and in data set [4] was above 10 mm throughout.
